Assay results taken from PubChem BioAssay AID1996.
In brackets after ≈: the same amount, converted by molar mass.

Conditions: buffer; pH 7.4; 200.0 µM

Row | SMILES | solubility kinetic
1 | CCN(CC)S(=O)(=O)c1ccc(-c2csc(C)n2)s1 | 13.6 µg/mL (≈ 43 µM)
2 | N#Cc1ccc(N2CCCNCC2)nc1 | > 30.3 µg/mL
3 | O=c1[nH]c(=S)[nH]c2nc(-c3ccccc3)cnc12 | > 38.4 µg/mL
4 | Cc1cccc(C)c1N1C(=O)[C@@H]2C(c3ccccc3Cl)=NO[C@@H]2C1=O | 39.6 µg/mL (≈ 112 µM)
5 | Cc1nc(Nc2ccccc2)sc1C(=O)c1ccccc1 | 2.1 µg/mL (≈ 7.13 µM)
6 | O=C(NCCC(=O)N1CCN(c2ccccn2)CC1)c1ccc(Cl)cc1 | > 55.9 µg/mL
7 | Cc1ccc(SC(=O)c2c(C)noc2-c2cc(C)on2)cc1 | 3 µg/mL (≈ 9.54 µM)
8 | CN(C)CCCNc1nc(-c2ccc(Cl)cc2)nc2ccccc12 | 41.7 µg/mL (≈ 122 µM)
9 | O=C(OCC(=O)N1CCC(Cc2ccccc2)CC1)c1cc(Br)ccc1O | 6 µg/mL (≈ 13.9 µM)
10 | CN1C(N)=NC(=O)/C1=C\c1ccc(Br)cc1 | 33.7 µg/mL (≈ 120 µM)
11 | O=C(NCC1COc2ccccc2O1)C1CCN(S(=O)(=O)c2ccccc2)CC1 (centres undefined) | 40.8 µg/mL (≈ 98 µM)
12 | COc1ccc(CN2CCN(C3CCC3)CC2CCO)cc1C (centres undefined) | 42.3 µg/mL (≈ 133 µM)
13 | COc1ccc(N2C(=O)CC(C3CCCO3)C2=O)cc1 (centres undefined) | > 41.3 µg/mL
14 | O=C(Nc1nccs1)c1cccc(NC(=O)C(F)(F)F)c1 | 38.8 µg/mL (≈ 123 µM)
15 | CCC(=O)Nc1ccc(OCc2nc3ccccc3s2)cc1 | 2.3 µg/mL (≈ 7.36 µM)
16 | Cc1nc2cc(C(=O)N3CCN(C)CC3)ccc2n1C | 40.2 µg/mL (≈ 148 µM)
17 | Cc1ccc(C)c(NS(=O)(=O)c2ccc3oc(=O)ccc3c2)c1 | 1.4 µg/mL (≈ 4.25 µM)
18 | CC(C)C(NC(=O)c1ccccc1F)C(=O)NCCCn1ccnc1 (centres undefined) | > 52 µg/mL
19 | COc1ccc(C(=O)NCCCN2CCOCC2)cc1 | > 41.8 µg/mL
20 | O=C(/C=C/c1cccs1)NC1CC1 | > 29 µg/mL

Row | SMILES | solubility kinetic
21 | COc1cccc2c1SCc1ccccc1C2CC(N)=O (centres undefined) | 39.2 µg/mL (≈ 131 µM)
22 | Nc1cc(=O)[nH]c(SCC(=O)c2ccc(O)cc2O)n1 | > 44 µg/mL
23 | COC(=O)c1scc(C)c1N1C(=O)c2ccccc2C1=O | 4.2 µg/mL (≈ 13.9 µM)
24 | Cc1cc(NCCOCCO)n2c(nc3ccccc32)c1C#N | > 46.6 µg/mL
25 | CC1CCCN(c2ccc(C(=O)Nc3cccnc3)cc2[N+](=O)[O-])C1 (centres undefined) | 15.8 µg/mL (≈ 46.4 µM)
26 | O=C(Nc1ccc([N+](=O)[O-])cc1)OCCc1ccccn1 | 0.6 µg/mL (≈ 2.09 µM)
27 | COc1cc(SC)ccc1C(=O)N1CCc2ccccc21 | 4.5 µg/mL (≈ 15 µM)
28 | CCN(Cc1ccccc1)C(=O)c1cc2cc(OC)c(OC)cc2[nH]1 | < 0.4 µg/mL
29 | COc1cc(NC(=O)C(c2ccccc2)c2ccccc2)c(C(=O)O)cc1OC | > 58.7 µg/mL
30 | O=C(CSc1ncnc2scc(-c3ccccc3)c12)NC1CCS(=O)(=O)C1 (centres undefined) | 58.6 µg/mL (≈ 140 µM)
31 | COCc1cc(=O)[nH]c(SCCS(=O)(=O)c2ccc(C)cc2)n1 | > 53.2 µg/mL
32 | O=[N+]([O-])c1cccc(-c2ccc(CN3CCN(c4ccccc4)CC3)o2)c1 | 1.4 µg/mL (≈ 3.85 µM)
33 | Cc1cccc(C(=O)NCC(=O)N2CC(=O)Nc3ccccc32)c1 | > 48.5 µg/mL
34 | Cc1c(CCO)c(=O)n2c([nH]c3ccccc32)c1C#N | 19 µg/mL (≈ 71.1 µM)
35 | C=CCNC(=O)CC1Nc2c3ccccc3nc(=S)n2C1=O (centres undefined) | > 47.2 µg/mL
36 | Cc1nc(Cc2nnc(SCC(=O)N3CC(=O)Nc4ccccc43)o2)cs1 | > 60.2 µg/mL
37 | CO/N=C1\CCn2c1c(C)c1ccccc12 | 0.8 µg/mL (≈ 3.73 µM)
38 | COc1ccc(C2C(C(C)=O)=C(O)C(=O)N2c2ccc(F)cc2)cc1 (centres undefined) | 48.5 µg/mL (≈ 142 µM)
39 | CN1CCN(C(=O)c2ccc(Oc3ccc([N+](=O)[O-])cc3)cc2)CC1 | > 51.2 µg/mL
40 | O=C(O)CCNC(=O)/C(=C\c1ccco1)NC(=O)c1ccco1 | > 47.7 µg/mL

Row | SMILES | solubility kinetic
41 | Cc1cc(C(=O)N/N=C2\CCCC(=O)C2)c(C)o1 | > 37.2 µg/mL
42 | Cc1ccc2[nH]c(=O)c(COC(=O)C3CCCCC3)cc2c1 | 2.9 µg/mL (≈ 9.69 µM)
43 | COc1ccc(CNC(=O)CSc2nc3cccnc3s2)cc1 | 36.3 µg/mL (≈ 105 µM)
44 | Cc1cnc(C(=O)Nc2ccc(N3CCCCC3)cc2)cn1 | 4.2 µg/mL (≈ 14.2 µM)
45 | COc1ccc(OC)c(-c2csc(-c3cccs3)n2)c1 | < 0.6 µg/mL
46 | O=C(COc1ccccc1Cl)Nc1cccnc1 | 33.7 µg/mL (≈ 128 µM)
47 | O=C(Nc1ccc(F)cc1)c1nc[nH]c1C(=O)O | > 37.4 µg/mL
48 | O=C1CN(S(=O)(=O)c2ccccc2C(F)(F)F)CCN1 | 40.3 µg/mL (≈ 131 µM)
49 | CCOc1ccc(C(=O)C(C)OC(=O)c2cnc(C)cn2)cc1 (centres undefined) | > 47.2 µg/mL
50 | S=C(c1ccc(-c2ccc(Br)cc2)o1)N1CCOCC1 | < 0.8 µg/mL
51 | CN(C)c1ccc(/C=C/c2nc3ccccc3c(=O)n2CCO)cc1 | 40.7 µg/mL (≈ 121 µM)
52 | Cc1nc2c(oc3ccc(Cl)cc32)c(=O)[nH]1 | 11.9 µg/mL (≈ 50.7 µM)
53 | CN(c1ccc(C(=O)Nc2ccc(CC#N)cc2)cc1)S(C)(=O)=O | 4.2 µg/mL (≈ 12.2 µM)
54 | CC(C)CCC(CCN1CCCC1)c1ccc2c(c1)OCO2.O=C(O)C(=O)O (centres undefined) | 48.4 µg/mL
55 | COc1cccc(/C=C/C(=O)OCC(=O)NC2CC2)c1 | > 41.3 µg/mL
56 | Cc1ccc(C)c(C(=O)CCC(=O)Nc2ccc(F)cc2)c1 | 1 µg/mL (≈ 3.34 µM)
57 | O=C(Cn1cc(C(F)(F)F)ccc1=O)N/N=C/c1ccccc1 | > 48.5 µg/mL
58 | NC(=O)c1ccc(NC(=O)COC(=O)C2CCN(S(=O)(=O)c3cccs3)CC2)cc1 | 25.1 µg/mL (≈ 55.6 µM)
59 | CCN(CC)C(=O)c1ccc(COc2ccc(Cl)c(C)c2)o1 | 10.7 µg/mL (≈ 33.3 µM)
